Drawing on article PMC8000592, “Discovery and Optimization of Selective Inhibitors of Meprin α (Part I)” (Pharmaceuticals, 2021), this text covers IC50 and increased apparent potency for eleven compounds.

Common to all, as to type: biochemical
The target of one assay is T1, meprin β (Homo sapiens, UniProt Q16820).
T1 sequence (Q16820 62-594 limits assumed): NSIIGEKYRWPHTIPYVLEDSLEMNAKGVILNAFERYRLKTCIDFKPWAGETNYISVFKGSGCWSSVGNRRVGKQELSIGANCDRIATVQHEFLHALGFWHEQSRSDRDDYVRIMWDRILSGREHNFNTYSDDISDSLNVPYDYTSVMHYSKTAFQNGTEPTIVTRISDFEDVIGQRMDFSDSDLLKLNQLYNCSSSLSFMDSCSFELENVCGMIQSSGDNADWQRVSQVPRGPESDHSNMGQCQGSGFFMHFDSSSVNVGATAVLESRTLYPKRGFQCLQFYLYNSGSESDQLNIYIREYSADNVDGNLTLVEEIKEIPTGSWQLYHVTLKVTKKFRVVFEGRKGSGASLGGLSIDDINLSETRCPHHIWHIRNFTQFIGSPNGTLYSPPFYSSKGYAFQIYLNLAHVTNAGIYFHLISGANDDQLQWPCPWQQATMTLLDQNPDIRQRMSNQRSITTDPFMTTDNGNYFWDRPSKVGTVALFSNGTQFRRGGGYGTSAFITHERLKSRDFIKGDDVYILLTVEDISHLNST
Briefly: Meprin β assay, fluorogenic substrate (Mca)-EDEDED-(K-ε-Dnp), 384 and 1536 well plate formats. An excerpt:
The meprin α and meprin β assays, which utilize the substrates (Mca)-YVADAPK-(K-ε-Dnp) and (Mca)-EDEDED-(K-ε-Dnp), respectively, have been described previously. To enable an ultra-high-throughput screening (uHTS) campaign, we proceeded to miniaturize both assays to 1536 well plate format (wpf). First, we recapitulated the assays in 1536 well plate using reagents at the same concentrations as in 384 well plate format assays by scaling the volume down by the factor of 2.5.
Both assays followed the same general protocol. A 5 µL measure of 2 × enzyme solution (2.6 and 0.1 nM for meprin α and meprin β, respectively) in assay buffer (50 mM Hepes, 0.01% Brij-35, pH 7.5) was added to solid bottom black 384 low volume plates (Nunc, cat# 264705). Next, 75 nL of test compounds or pharmacological control (actinonin or NFF449) were added to corresponding wells using a 384-pin tool device (V&P Scientific, San Diego, CA, USA). After 30 min incubation at RT, the reactions were started by addition of 5 µL of 2 × solutions of substrates (20 µM, mepin α substrate Mca-YVADAPK-K(Dnp) or meprin β substrate Mca-EDEDED-K(Dnp)). Reactions were incubated at RT for 1 h, after which the fluorescence was measured using the Synergy H4 multimode microplate reader (Biotek Instruments) (λexcitation = 324 nm, λemission = 390 nm).
Both assays followed the same general protocol. A 2 µL portion of 2 × enzyme solution (1.3 and 0.0125 nM for meprin α and meprin β, respectively) in assay buffer (50 mM Hepes, 0.01% Brij-35, pH 7.5) was added to solid bottom black 1536 low volume plates (Corning cat# 7261). Next, 30 nL of test compounds or pharmacological control (actinonin or NFF449) was added to corresponding wells using a 1536 pin tool device (V&P Scientific, San Diego). After 30 min incubation at RT, the reactions were started by addition of 2 µL of 2x solutions of substrates (20 µM, meprin α substrate Mca-YVADAPK-K(Dnp) or meprin β substrate Mca-EDEDED-K(Dnp)). Reactions were incubated at RT for 1 h, after which the fluorescence was measured using the Viewlux multimode microplate reader (Perkin Elmer) (λexcitation = 324 nm, λemission = 390 nm).
The miniaturized 1536-well plate format meprin α and meprin β assays were used to screen a collection of approximately 650,000 compounds (The Scripps Research library, La Jolla, CA, USA) on the automated Kalypsys/GNF platform at The Scripps Research Molecular Screening Center (SRMSC, Jupiter, FL, USA: http://hts.florida.scripps.edu/). Both uHTS campaigns were run separately but in a similar manner. Briefly, the first step was the primary screen of all test compounds as singlicates against the meprin α and meprin β target at a final concentration of 7.0 μM. Next, compounds selected as primary hits were cherry-picked and retested in triplicate against the primary screen target and its antitarget (meprin α for the meprin β screening effort, and vice versa) at a same final concentration of 7.0 μM. The additional counter screen assays against related metzincins (MMP-8, MMP-14, and ADAM10) were performed in triplicate at a final concentration of 7.0 μM. The final step was the titration of selected hits as 10-point, 1:3 serial dilutions in both the target and antitarget assay, starting at a final nominal concentration of 17 μM. […] Wells treated with DMSO only were used as negative controls and 0% inhibition reference. […] All data generated during this effort were uploaded to the SRMSC’s institutional screening database (Assay Explorer, Symyx). Sample to background (S/B) ratios, as well as Z and Z’ values, were calculated on a per plate basis as described 14. Curve fitting and resulting IC50 determinations were performed as previously reported.

Another assay has as its target T2, MMP10 (Homo sapiens, UniProt P09238).
T2 construct: purchased R&D Systems 910-MP
Briefly: MMP assay (Mca-KPLGL-Dpa-AR-NH2 substrate). The following applies: triplicate, 10-point, 3:1 serial dilution, highest concentration 17.4 µM. As for the experimental part: (§1) In addition to meprins, we also tested 64 hits against related metzincins (MMP-2, MMP-3, MMP-8, MMP-9, MMP-10, MMP-14, ADAM10, and ADAM17) to ascertain general nonpromiscuity against zinc-dependent proteases.
(§2) All assays followed the same general protocol. […] After 30 min incubation at RT, the reactions were started by addition of 5 µL of 2x solutions of substrate (R&D Systems cat#: ES010, Mca-KPLGL-Dpa-AR-NH2, 20 µM). Reactions were incubated at RT for 1 h, after which the fluorescence was measured using the Synergy H4 multimode microplate reader (Biotek Instruments) (λexcitation = 324 nm, λemission = 390 nm).

The target of the next assay is T3, MMP14 (Homo sapiens, UniProt P50281).
T3 construct: purchased R&D Systems 918-MP
Briefly: MMP assay (Mca-KPLGL-Dpa-AR-NH2 substrate). Particulars: triplicate, 10-point, 3:1 serial dilution, highest concentration 17.4 µM. How it is done:
as §1, §2

Another assay deals with T4, MMP8 (Homo sapiens, UniProt P22894).
T4 construct: purchased R&D Systems 908-MP
T4 sequence (P22894 101-467): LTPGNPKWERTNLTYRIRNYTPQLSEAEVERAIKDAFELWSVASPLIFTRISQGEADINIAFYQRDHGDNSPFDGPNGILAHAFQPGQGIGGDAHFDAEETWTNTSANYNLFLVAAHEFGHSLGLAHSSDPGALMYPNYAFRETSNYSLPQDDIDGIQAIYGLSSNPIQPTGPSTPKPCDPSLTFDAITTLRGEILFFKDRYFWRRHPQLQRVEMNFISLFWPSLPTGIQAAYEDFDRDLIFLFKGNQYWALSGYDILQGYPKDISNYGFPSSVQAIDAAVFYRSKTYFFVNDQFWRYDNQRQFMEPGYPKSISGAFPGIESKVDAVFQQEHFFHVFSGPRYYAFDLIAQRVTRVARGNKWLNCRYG
Description: MMP assay (Mca-KPLGL-Dpa-AR-NH2 substrate). The following applies: triplicate, 10-point, 3:1 serial dilution, highest concentration 17.4 µM. How it is done: as §1, §2

The mark [1] stands for this setting: triplicate, 10-point, 3:1 serial dilution, highest concentration 17.4 µM, read-out: Meprin β IC50.

SMILES strings stand for the structures. Read-outs that look alike come from different tables or passages of the source. Some results are limits rather than exact numbers.

T2 sequence (P09238 99-476): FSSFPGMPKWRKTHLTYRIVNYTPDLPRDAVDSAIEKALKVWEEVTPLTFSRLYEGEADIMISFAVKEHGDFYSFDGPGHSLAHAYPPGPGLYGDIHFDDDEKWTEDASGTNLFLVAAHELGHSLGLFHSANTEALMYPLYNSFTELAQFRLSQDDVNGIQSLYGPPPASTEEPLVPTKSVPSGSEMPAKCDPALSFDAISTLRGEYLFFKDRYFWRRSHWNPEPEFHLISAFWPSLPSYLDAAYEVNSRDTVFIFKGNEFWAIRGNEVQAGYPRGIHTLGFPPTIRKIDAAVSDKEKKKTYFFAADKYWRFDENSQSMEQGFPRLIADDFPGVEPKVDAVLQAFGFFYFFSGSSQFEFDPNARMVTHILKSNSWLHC

In the case of `O=[N+]([O-])c1ccc(CN2CCC3(CCc4ccccc43)CC2)o1` [SR207820], the IC50 (in general, the midpoint of a concentration-inhibition curve) is 1500 nM at meprin β (setting [1]), > 17000 nM on MMP10, > 17000 nM at MMP14 and > 17000 nM on MMP8.
As for `O=C(COc1ccc(Cl)cc1Cl)NO` [Compound 1596857], the IC50 at meprin β, at MMP10, on MMP14 and at MMP8 was > 17000 nM throughout.
As for `COc1ccc(-n2c(CSc3ncccn3)nnc2SCC(=O)NO)cc1` [Compound 19855], the IC50 at meprin β (setting [1]), on MMP10, on MMP14 and at MMP8 was > 17000 nM in each case.
Take `COc1cc(OC)cc(C(=O)CNc2nnc(SCC(=O)NO)s2)c1` [Compound 19849]: the IC50 was 287 nM at meprin β (setting [1]), > 17000 nM at MMP10, > 17000 nM at MMP14 and > 17000 nM at MMP8.
As to `O=C(CSc1nnc(NC(=O)c2ccccc2)s1)NO` [Compound 19847], the IC50 was 1430 nM on meprin β (setting [1]), > 17000 nM at MMP10, > 17000 nM on MMP14 and > 17000 nM at MMP8.
For `CSc1nnc2c(n1)OC(c1ccc([N+](=O)[O-])o1)Nc1ccccc1-2` (stereo not shown) [SR412882], the IC50 at meprin β (setting [1]) is 3500 nM; on MMP10, 9700 nM; at MMP14 it was 10500 nM; at MMP8, > 17000 nM.
Regarding `O=C(Nc1cc(C(=O)Nc2ccc(S(=O)(=O)O)cc2S(=O)(=O)O)cc(C(=O)Nc2ccc(S(=O)(=O)O)cc2S(=O)(=O)O)c1)Nc1cc(C(=O)Nc2ccc(S(=O)(=O)O)cc2S(=O)(=O)O)cc(C(=O)Nc2ccc(S(=O)(=O)O)cc2S(=O)(=O)O)c1` [NFF449], the increased apparent potency at meprin β (2.5 µM substrate condition) stood at 3 fold. The IC50 on meprin β (1536 wpf, 0.0125 nM enzyme, substrate 2.5uM, time 30 min, read-out: NF449 IC50) amounted to 10 nM; at meprin β (1536 wpf, 0.0125 nM enzyme, substrate 2.5uM, time 60 min, read-out: NF449 IC50) it was 11 nM; on meprin β (1536 wpf, 0.0125 nM enzyme, substrate 5uM, time 30 min, read-out: NF449 IC50), 17 nM; at meprin β (1536 wpf, 0.0125 nM enzyme, substrate 5uM, time 60 min, read-out: NF449 IC50) it was 20 nM; on meprin β (1536 wpf, 0.0125 nM enzyme, substrate 5uM, time 90 min, read-out: NF449 IC50) it was 22 nM; on meprin β (1536 wpf, 0.0125 nM enzyme, substrate 10uM, time 30 min, read-out: NF449 IC50), 34 nM. The IC50 amounted to 32 nM at meprin β (1536 wpf, 0.0125 nM enzyme, substrate 10uM, time 60 min, read-out: NF449 IC50); 34 nM on meprin β (1536 wpf, 0.0125 nM enzyme, substrate 10uM, time 90 min, read-out: NF449 IC50); 25.2 nM on meprin β (1536 wpf, enzyme 0.0125nM, time 30 min, read-out: NF449 IC50); 30.4 nM on meprin β (1536 wpf, enzyme 0.0125nM, time 60 min, read-out: NF449 IC50); 33.9 nM at meprin β (1536 wpf, enzyme 0.0125nM, time 90 min, read-out: NF449 IC50); 31 nM on meprin β (1536 wpf, enzyme 0.025nM, time 30 min, read-out: NF449 IC50). Also, the IC50 on meprin β (1536 wpf, enzyme 0.025nM, time 60 min, read-out: NF449 IC50) is 36.2 nM; at meprin β (1536 wpf, enzyme 0.025nM, time 90 min, read-out: NF449 IC50) it was 39.2 nM; at meprin β (1536 wpf, enzyme 0.05nM, time 30 min, read-out: NF449 IC50), 29.6 nM; on meprin β (1536 wpf, enzyme 0.05nM, time 60 min, read-out: NF449 IC50) it was 34.6 nM; at meprin β (1536 wpf, enzyme 0.05nM, time 90 min, read-out: NF449 IC50), 39.4 nM; on meprin β (Meprin β 384 wpf, read-out: IC50), 53 nM. In addition, the IC50 at meprin β (Meprin β 1536 wpf, read-out: IC50) amounted to 48 nM; at meprin β (control compound in primary HTS campaign, n = 11 plates, read-out: IC50) it was 10.4 ± 0.85 nM.
For the compound `O=C(CSc1nnc(NC(=O)COc2ccccc2)s1)NO` [Compound 19848], the IC50 on meprin β (setting [1]) was 385 nM; at MMP10, > 17000 nM; at MMP14, > 17000 nM; on MMP8, > 17000 nM.
As for `O=C(CCN(Cc1ccccc1)S(=O)(=O)c1ccc(F)cc1)NO` [Compound 162808], the IC50 on meprin β (setting [1]), at MMP10, at MMP14 and at MMP8 was > 17000 nM each time.
Take `O=C(CCN(Cc1cccs1)S(=O)(=O)c1ccc([N+](=O)[O-])cc1)NO` [Compound 162799]: the IC50 at meprin β (setting [1]), on MMP10, on MMP14 and at MMP8 was > 17000 nM throughout.
For `O=C(c1ccc(C(=O)O)c([N+](=O)[O-])c1)c1ccc(C(=O)O)c([N+](=O)[O-])c1` [SR355996], the IC50 was 970 nM on meprin β (setting [1]), > 17000 nM at MMP10, > 17000 nM on MMP14 and > 17000 nM at MMP8.
